The record followed here is patent publication US20240382564A1, “Methods and Compositions for Treating Muscular Dystrophy and Memory Impairment” (Allysta Pharmaceuticals, Inc., priority 2023, published 2024).

Experiment [1] has as its system D2.mdx mice. Nature of the experiment: Mitochondrial H2O2 emission in permeabilized muscle fibre bundles. In kind it is in vivo, mouse. As for the experimental part:
D2.mdx mice were treated with ALY688 at two different dosages; high dose (HD; 15 mg/kg body weight/day) or low dose (LD; 3 mg/kg body weight/day) dissolved in saline. A separate group of mice were treated with saline alone (VEH, vehicle). Treatment was provided via subscapular subcutaneous injections from 7 days of age to 28-30 days. […] At 28-30 days of age, mice were anaesthetized with isoflurane vaporized in medical air (21% oxygen) at a 2 L/min flow rate. Due to tissue limitations in limb muscle, certain measures were performed separately in tibialis anterior and quadriceps across several phases of breeding. Following the treatment protocol, in situ quadriceps force assessments were then performed in one limb followed by removal of the quadriceps from the other limb for mitochondrial assessments, diaphragm for in vitro force assessments and finally other tissues for further processing as described below. Muscle and visceral organs weights were normalized to tibia length. Tissue collected from the first phase were utilized in force, histological, mitochondrial measures (respiration, mH2O2 and calcium retention capacity) and western analyses (diaphragm and quadriceps only). A second phase was then collected and utilized for cytokine profiling, qPCR analyses and additional westerns (TA only). Serum was collected from both phase 1 and 2 and utilized for serum CK analysis. All animals were utilized in in vivo functional assays (grip strength, cage hang time and voluntary wheel running).
The quadriceps from the non-stimulated limb and the diaphragm were collected and quickly placed in a buffer containing (in mM) 50 MES Hydrate, 7.23 K2EGTA, 2.77 CaK2EGTA, 20 imidazole, 0.5 dithiothreitol, 20 taurine, 5.77 ATP, 15 PCr, and 6.56 MgCl2·6H2O (pH 7.1). Both muscles were trimmed of connective tissue and fat and separated along the longitudinal axis into small bundles weighing approximately 1.0-2.5 mg wet weight for respiration and mH2O2 and 0.5-1.5 mg wet weight for calcium retention capacity. Bundles were permeabilized with […] saponin (Sigma Aldrich; St. Louis, MI, USA) in BIOPS on a platform rotor for 30 minutes at 4° C. The permeabilized bundles were then transferred to wash buffers to remove saponin as follows: MiRO5 for mitochondrial respiration, Buffer Z for mitochondrial H2O2 emission (mH2O2), and Buffer Y for calcium retention capacity. The composition of each buffer has been described previously. Fibres prepared for pyruvate-supported mitochondrial H2O2 emission (mH2O2) were permeabilized in the presence of 35 μM 2,4-dinitrochlorobenzene (CDNB) to deplete glutathione and enhance the detection of mH2O2. All bioenergetic assays were performed within 4 hours of washing to maintain fibre viability.
Briefly, mH2O2 was determined spectrofluorometrically (QuantaMaster 40, HORIBA Scientific, Irvine, CA, USA) utilizing Buffer Z containing 10 μM Amplex Ultra Red (Life Technologies; Carlsbad, CA, USA), 1 U/mL horseradish peroxidase, 1 mM EGTA, 40 U/mL Cu/Zn SOD1, 5 μM blebbistatin and 20 mM Cr. […] The ability of ADP to suppress mH2O2 was assessed with a titration of physiological concentrations (25, 100) and saturating for oxidant generation (500 μM). […] The rate of mH2O2 emission was calculated using a standard curve under the same assay conditions and then normalized to fibre bundle dry weight.

Experiment [2] relates to D2.mdx mice. Briefly: Hippocampal high-resolution respirometry. In kind it is in vivo, mouse. Particulars: 15 mg/kg daily; 15 μM ADP. The method, then: Male D2.mdx mice originated from a colony maintained at York University (Toronto, Canada) and sourced from Jackson Laboratories (Stock Number 013141, Bar Harbor, United States). Mice were treated daily from days 7 to 28 of age with ALY688 at 15 mg/kg b.w. (D2.mdx-ALY688) or saline control (D2.mdx-VEH). This age was chosen given it captures an early stage of disease progression in cardiac and skeletal muscle. Mice were sacrificed 20-24 hr after the last dose. Breeding of wildtype mice was unsuccessful. Instead, three-week-old wildtype DBA/2J WT mice (D2A) were obtained from Jackson Laboratories (Stock number 000671, Bar Harbor, United States) and allowed to acclimatize for one week before sacrifice. Mice were housed in standard 12:12-hr light:dark cycles and were allowed access to standard rodent chow and water ad libitum. 4 days prior to sacrifice, all groups underwent novel object recognition acclimatization and testing as described below. Mice were anesthetized under 5% isoflurane vaporized in medical air (21% oxygen) at a flow rate of 2 L/min and then maintained at 2-3% prior to euthanasia by exsanguination. […]
Mitochondrial oxygen consumption (respiration) was measured using the in situ brain permeabilization. […] Polarographic oxygen measurements were acquired in 2 s intervals with the rate of respiration derived from 40 data points and expressed as pmol/s/mg wet weight. […]

Entries after “also recorded” stand apart in the source; their conditions may differ. Where no end group is shown, it is not given here. [ ]: non-standard residue; d: D form. Nva = CCC[C@H](N)C(=O)O

As to [dN]IP[Nva]LY[dS]FA[dS]-NH2 [ALY688], the “mitochondrial responsiveness to ADP (pyruvate/malate-supported mH2O2 emission)” value in experiment [1] (diaphragm, HD) is on record as “completely preserved”. In experiment [1] (diaphragm, HD, across ADP concentrations), the “reduction of pyruvate/malate-supported mH2O2 emission” value was in the range of 8.7 to 70.7%. In addition, the “succinate-induced mH2O2 emission” value in experiment [1] (diaphragm, absence and presence of creatine, LD and HD) was “no effect of either drug dose”. The “attenuation of succinate-induced mH2O2 emission” value in experiment [1] (quadriceps, both doses, absence and presence of creatine) is reported as 11.3 to 73.6%. For the same substance, the “attenuation of pyruvate/malate-supported mH2O2 emission” value in experiment [1] (quadriceps, both doses, across ADP concentrations) was in the range of 45.9 to 62.3%. For the same substance, in experiment [2], the “hippocampal pyruvate-supported respiration stimulated by ADP” value is given as “completely preserved; also recorded: complete restoration”.
